Measurements as given in patent US7078537B2, “Phenylalkyl diamine and amide analogs” (SK Corporation, priority 2001, dated 2006).
Like-named read-outs stand apart in the source and are kept apart here.

Assays:
[1] = target: T1, sigma-1 receptor (Cavia porcellus, UniProt Q60492); assay: Sigma-1 binding assay ([3H](+)-pentazocine); details: guinea pig brain membranes; for IC50: [3H](+)-pentazocine 2.4 nM, Table I; for inhibition at 0.01 µM: inhibition % at 10 nM, [3H](+)-pentazocine, Table II, read-out: Sigma 1 Inhib. %
T1 construct: their whole brains (without cerebellum) were rapidly removed and homogenized; from tissue; host or cells: guinea pig (male Hartley) whole brain without cerebellum, membrane homogenate
Method: (§1) Sigma-1 and Sigma-2 Binding Assay Methods
(§2) Compounds of the present inventions were tested for selective binding to the sigma-1 receptor and sigma-2 receptor as modified from Chaki et al. Eur. J. Pharmacol. 1994, 251, R1. and Akunne et al., Neuropharmacology, 1997, 36(1), 51.
(§3) Tissue Homogenate Preparation for Sigma-1 Binding Assay and Sigma-2 Binding Assay
(§4) Male Hartley guinea pigs each weighing 300–400 g were used in sigma subtype binding assay. Guinea pigs were killed by decapitation and their whole brains (without cerebellum) were rapidly removed and homogenized in 25 volumes(W/V) of ice-cold 50 mM Tris-HCl buffer(pH 7.4 buffer for sigma-1 binding assay and pH 8.0 buffer for sigma-2 binding assay). The homogenate was centrifuged in 48,000×g for 10 min at 4° C. The supernatant was discarded and the resulting pellets were resuspended in the sane volume of buffer and recentrifuged as described above. The pellets were resuspended and washed twice more in the same manner as described above. The final pellets were resuspended in 10 volumes(W/V) of ice-cold 50 mM Tris-HCl buffer to enable distribution of 2 ml aliquot in microcentrifuge tube, which were used immediately or kept at −80° C. for no more than 1 month before use.
Sigma-1 Binding Assay ([^3H](+)pentazocine)
The sigma-1 selective binding assay was performed using [^3H](+)-pentazocine as the radioligand (2.4 nM final concentration unless otherwise specified) and approximately […] of guinea pig brain membranes in a final volume of […] of 50 mM TRISHCl, pH7.4. Non-specific binding was determined in the presence of […]. For the standard equilibrium assay, the mixtures were incubated for 2 hours at 25°, and rapidly filtered over Whatman GF/C glass fiber filters, followed by three 4.5 ml rinses with ice-cold incubation buffer. The filters were placed in counting vials and 4 ml scintillation solution. The vials were counted in a Beckman scintillation counter.
(§5) IC50 values for sigma-1 or -2 binding assay were calculated using KELL RADLIG v.6.0.5.

[2] = target: T2, sigma-2 receptor (Cavia porcellus, UniProt H0V073); assay: Sigma-2 binding assay ([3H]DTG in the presence of (+)-SKF10047); details: guinea pig brain membranes, read-out: Sigma 2 Inhib. %
T2 construct: their whole brains (without cerebellum) were rapidly removed and homogenized; from tissue; host or cells: guinea pig (male Hartley) whole brain without cerebellum, membrane homogenate
T2 sequence (H0V073 1-176): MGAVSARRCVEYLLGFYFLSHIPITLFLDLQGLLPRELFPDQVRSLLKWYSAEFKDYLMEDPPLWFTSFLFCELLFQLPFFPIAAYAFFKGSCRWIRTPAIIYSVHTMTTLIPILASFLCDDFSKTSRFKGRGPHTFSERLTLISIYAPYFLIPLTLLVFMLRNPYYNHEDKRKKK
Method: as §1, §2, §3, §4
Sigma-2 Binding Assay([^3H]DTG)
The Sigma-2 selective binding assay was performed using 3.6 nM[^3H]DTG as the radioligand in the presence of 200 nM (+)-SKF10047 to block the Sigma-1 sites, with […] of guinea pig brain membranes in a total volume of 0.5 ml of 50 mM TRIS-HCl, pH8.0. Non-specific binding was determined in the presence of […]. Incubation condition and other manipulations were as described above for sigma-1 binding assay.
as §5

[3] = Inhibition % at 10 nM, [3H]DTG 3.6 nM, Table I
[4] = inhibition % at 10 nM, [3H]DTG, Table II

T1 sequence (Q60492 whole entry): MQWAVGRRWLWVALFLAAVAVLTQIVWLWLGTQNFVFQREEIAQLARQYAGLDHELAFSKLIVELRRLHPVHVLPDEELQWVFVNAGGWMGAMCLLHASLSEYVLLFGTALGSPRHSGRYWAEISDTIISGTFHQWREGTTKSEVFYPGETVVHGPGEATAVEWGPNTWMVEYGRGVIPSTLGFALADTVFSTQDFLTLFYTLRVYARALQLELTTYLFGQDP

Compound	inhibition at 0.01 µM [1] [%]	inhibition at 0.01 µM [2, 4] [%]	IC50 [1] [nM]	inhibition at 0.01 µM [2, 3] [%]
CC(C)(C)c1ccc(CC(N)CN2CCCCCC2)cc1 (stereo not shown)	–	–	2.1	55.7
NC(Cc1ccc(C(F)(F)F)cc1)CN1CCCCCC1 (stereo not shown)	–	–	2	43.9
NC(Cc1ccc(Cl)cc1)CN1CCCCCC1 (stereo not shown)	–	–	13.9	36.8
NC(Cc1ccc(Cl)c(Cl)c1)CN1CCCCCC1 (stereo not shown)	–	–	12.1	12.5
CN(C(=O)Cc1ccc(Cl)c(Cl)c1)C(Cc1ccc(C(C)(C)C)cc1)CN1CCCCCC1 (stereo not shown)	–	–	35.7	51.4
CNC(Cc1ccc(C(C)(C)C)cc1)CN1CCCCCC1 (stereo not shown)	–	–	2.5	27.4
CN(C)C(Cc1ccc(C(C)(C)C)cc1)CN1CCCCCC1 (stereo not shown)	–	–	2.1	–
CC(C)(C)c1ccc(CC(CN2CCCCCC2)NCc2ccccc2)cc1 (stereo not shown)	–	–	10	–
O=C(Cc1ccc(Cl)c(Cl)c1)NC(CCN1CCCCCC1)c1ccccc1 (stereo not shown)	–	–	10.8	27.1
Clc1ccc(CCNC(CCN2CCCCCC2)c2ccccc2)cc1Cl (stereo not shown)	–	–	10.2	70.2
NC(Cc1cccc(C(F)(F)F)c1)CN1CCCCCC1 (stereo not shown)	42.9	31.3	–	–
NC(Cc1c(Cl)cccc1Cl)CN1CCCCCC1 (stereo not shown)	33.6	21.7	–	–
NC(Cc1ccc(Cl)cc1Cl)CN1CCCCCC1 (stereo not shown)	73.2	61	–	–
NC(Cc1ccc(Cl)c(Cl)c1)CN1CCC(Cc2ccccc2)CC1 (stereo not shown)	57.3	48.3	–	–
O=CNC(Cc1ccc(Cl)c(Cl)c1)CN1CCC(Cc2ccccc2)CC1 (stereo not shown)	71.9	39.9	–	–
CC(C)(C)c1ccc(CC(N)CN2CCC(Cc3ccccc3)CC2)cc1 (stereo not shown)	26.1	38.2	–	–
CNC(Cc1ccc(Cl)c(Cl)c1)CN1CCC(Cc2ccccc2)CC1 (stereo not shown)	66.1	72.7	–	–
CC(C)(C)c1ccc(CC(CN2CCC(Cc3ccccc3)CC2)NC=O)cc1 (stereo not shown)	52.7	6.1	–	–
NC(Cc1ccc(Cl)cc1Cl)CN1CCC(Cc2ccccc2)CC1 (stereo not shown)	56.9	48.3	–	–
CNC(Cc1ccc(C(C)(C)C)cc1)CN1CCC(Cc2ccccc2)CC1 (stereo not shown)	63.2	57.9	–	–
O=CNC(Cc1ccc(Cl)cc1Cl)CN1CCC(Cc2ccccc2)CC1 (stereo not shown)	74.5	24.3	–	–
CNC(Cc1ccc(Cl)cc1Cl)CN1CCC(Cc2ccccc2)CC1 (stereo not shown)	75.6	75	–	–

Compound	inhibition at 0.01 µM [1] [%]	inhibition at 0.01 µM [2, 4] [%]	IC50 [1] [nM]	inhibition at 0.01 µM [2, 3] [%]
O=CNC(Cc1ccc(Cl)c(Cl)c1)CN1CCCCCC1 (stereo not shown)	67.7	37.8	–	–
N[C@@H](Cc1ccccc1)CN1CCC(C(=O)Cc2ccccc2)CC1	43.1	21.4	–	–
NC(Cc1ccc(Cl)c(Cl)c1)CN1CCC(C(=O)c2ccc(Cl)c(Cl)c2)CC1 (stereo not shown)	10.7	47.2	–	–
NC(CCN1CCC(Cc2ccccc2)CC1)c1ccccc1 (stereo not shown)	25.5	39.7	–	–
NC(CCCN1CCCCCC1)c1ccccc1 (stereo not shown)	7.1	21.6	–	–
NC(CCCCN1CCCCCC1)c1ccccc1 (stereo not shown)	9.3	32.5	–	–
Clc1ccc(CCNC(CCN2CCC(Cc3ccccc3)CC2)c2ccccc2)cc1Cl (stereo not shown)	28.8	22.6	–	–
O=CNC(CCN1CCC(Cc2ccccc2)CC1)c1ccccc1 (stereo not shown)	28.2	26.3	–	–
CNC(CCN1CCC(Cc2ccccc2)CC1)c1ccccc1 (stereo not shown)	36.3	54.1	–	–
CN(C=O)C(CCN1CCC(Cc2ccccc2)CC1)c1ccccc1 (stereo not shown)	-2	26.4	–	–
CN(C)C(CCN1CCC(Cc2ccccc2)CC1)c1ccccc1 (stereo not shown)	20.3	57.7	–	–
O=S(=O)(NC(CCN1CCC(Cc2ccccc2)CC1)c1ccccc1)c1ccccc1 (stereo not shown)	35.6	11.4	–	–
O=[N+]([O-])c1ccc(S(=O)(=O)NC(CCN2CCC(Cc3ccccc3)CC2)c2ccccc2)c([N+](=O)[O-])c1 (stereo not shown)	5.7	40.6	–	–
O=[N+]([O-])c1cccc(S(=O)(=O)NC(CCN2CCC(Cc3ccccc3)CC2)c2ccccc2)c1 (stereo not shown)	45.7	25.7	–	–
O=[N+]([O-])c1ccccc1S(=O)(=O)NC(CCN1CCC(Cc2ccccc2)CC1)c1ccccc1 (stereo not shown)	31.6	3.1	–	–
O=C(NC(CCN1CCC(Cc2ccccc2)CC1)c1ccccc1)c1ccccc1 (stereo not shown)	44.3	5.2	–	–
NC(CCN1CCC(C(=O)c2ccccc2)CC1)c1ccccc1 (stereo not shown)	13.7	48.3	–	–
NC(CCN1CCC(C(=O)c2ccc(F)cc2)CC1)c1ccccc1 (stereo not shown)	-1.9	57.3	–	–
NC(CCN1CCC(C(=O)Cc2ccccc2)CC1)c1ccccc1 (stereo not shown)	2.2	28.7	–	–
CC(C)(C)c1ccc(CC(N)CCN2CCC(Cc3ccccc3)CC2)cc1 (stereo not shown)	3.7	24.3	–	–
CNC(CCN1CCC(C(=O)c2ccc(F)cc2)CC1)c1ccccc1 (stereo not shown)	25.2	50.5	–	–

Continued, in another order:

inhibition at 0.01 µM [1] [%]	inhibition at 0.01 µM [2, 4] [%]	Compound	IC50 [1] [nM]	inhibition at 0.01 µM [2, 3] [%]
15.3	34.7	NC(Cc1ccc(Cl)cc1Cl)CN1CCC(C(=O)c2ccccc2)CC1 (stereo not shown)	–	–
38.9	50	NC(Cc1ccc(Cl)cc1)CN1CCC(C(=O)c2ccccc2)CC1 (stereo not shown)	–	–
11.2	16.9	N[C@H](Cc1ccccc1)CN1CCC(C(=O)c2ccccc2)CC1	–	–
33.6	34	NC(Cc1ccccc1)CN1CCC(C(=O)c2ccccc2)CC1 (stereo not shown)	–	–
39.8	33.3	N[C@@H](Cc1ccccc1)CN1CCC(C(=O)c2ccccc2)CC1	–	–
61	53.6	N[C@@H](Cc1ccccc1)CN1CCC(C(=O)c2ccc(Cl)cc2)CC1	–	–
66.7	61.1	N[C@@H](Cc1ccccc1)CN1CCC(C(=O)c2ccc(F)cc2)CC1	–	–
60.8	56.6	N[C@@H](Cc1ccccc1)CN1CCC(C(=O)c2ccc(Cl)c(Cl)c2)CC1	–	–
23.5	34.9	NC(Cc1ccc(Cl)cc1)CN1CCC(C(=O)c2ccc(Cl)cc2)CC1 (stereo not shown)	–	–
31.1	48.5	NC(Cc1ccc(Cl)cc1)CN1CCC(C(=O)c2ccc(F)cc2)CC1 (stereo not shown)	–	–
24.7	51.7	NC(Cc1ccc(Cl)cc1)CN1CCC(C(=O)c2ccc(Cl)c(Cl)c2)CC1 (stereo not shown)	–	–
10.8	39.6	NC(Cc1ccc(Cl)c(Cl)c1)CN1CCC(C(=O)c2ccccc2)CC1 (stereo not shown)	–	–
49.1	39.8	COc1ccc(C(=O)C2CCN(C[C@@H](N)Cc3ccccc3)CC2)cc1	–	–
19.5	31	COc1ccc(C(=O)C2CCN(CC(N)Cc3ccc(Cl)cc3)CC2)cc1 (stereo not shown)	–	–
82.9	73	N[C@@H](Cc1ccccc1)CN1CCC(C(=O)c2cccc(Cl)c2)CC1	–	–
34.5	41.6	NC(Cc1ccc(Cl)cc1)CN1CCC(C(=O)c2cccc(Cl)c2)CC1 (stereo not shown)	–	–
66.2	43.1	CC(C)(C)c1ccc(C(=O)C2CCN(C[C@@H](N)Cc3ccccc3)CC2)cc1	–	–
47.4	30	CC(C)(C)c1ccc(CC(N)CN2CCC(C(=O)c3ccccc3)CC2)cc1 (stereo not shown)	–	–
3.2	30.9	COc1ccc(C(=O)C2CCN(CCC(N)c3ccccc3)CC2)cc1 (stereo not shown)	–	–
7.9	43.7	NC(CCN1CCC(C(=O)c2ccc(Cl)cc2)CC1)c1ccccc1 (stereo not shown)	–	–
